Assay type in all cases: biochemical
For assay [1], the target named is T1, Lck (Homo sapiens, UniProt P06239).
T1 construct: Kinases are expressed as either kinase domains or full length constructs; made in house
Description: Kinase inhibition assay (33P transfer), Lck. The settings on record: Table 3; read-out: Lck-1. Put shortly:
(§1)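 Filterless plate radiometric format: immobilized poly(Glu,Tyr) 4:1 or poly(Arg,Ser) 3:1, 33P-labelled ATP, tagged recombinant kinase (some with regulatory partners). Incorporated label counted after phosphoric acid wash.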

Assay [2] deals with T2, Zap-70 (Homo sapiens, UniProt P43403).
T2 construct: Kinases are expressed as either kinase domains or full length constructs; made in house
T2 sequence (P43403 1-619): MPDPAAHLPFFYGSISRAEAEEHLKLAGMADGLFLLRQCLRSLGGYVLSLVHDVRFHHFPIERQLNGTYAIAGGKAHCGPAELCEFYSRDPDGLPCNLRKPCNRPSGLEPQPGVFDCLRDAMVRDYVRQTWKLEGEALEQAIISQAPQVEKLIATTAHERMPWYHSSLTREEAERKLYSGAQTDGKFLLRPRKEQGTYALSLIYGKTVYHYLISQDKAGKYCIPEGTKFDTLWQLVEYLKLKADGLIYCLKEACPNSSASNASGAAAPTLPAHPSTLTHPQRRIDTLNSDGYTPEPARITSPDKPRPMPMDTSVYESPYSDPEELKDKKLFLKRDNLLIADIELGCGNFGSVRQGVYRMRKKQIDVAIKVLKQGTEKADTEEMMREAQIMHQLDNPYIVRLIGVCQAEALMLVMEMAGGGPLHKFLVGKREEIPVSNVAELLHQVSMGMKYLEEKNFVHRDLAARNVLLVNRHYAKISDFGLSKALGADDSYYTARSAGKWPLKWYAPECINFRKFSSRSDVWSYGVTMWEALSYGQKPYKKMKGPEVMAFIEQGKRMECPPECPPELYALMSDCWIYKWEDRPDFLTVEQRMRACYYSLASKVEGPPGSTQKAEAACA
Description: Kinase inhibition assay (33P transfer), Zap-70. To be noted: Table 3; read-out: Zap-1. The method in brief: as §1

Assay [3] concerns the target T3, Itk (Homo sapiens, UniProt Q08881).
T3 construct: Kinases are expressed as either kinase domains or full length constructs; made in house
T3 sequence (Q08881 1-620): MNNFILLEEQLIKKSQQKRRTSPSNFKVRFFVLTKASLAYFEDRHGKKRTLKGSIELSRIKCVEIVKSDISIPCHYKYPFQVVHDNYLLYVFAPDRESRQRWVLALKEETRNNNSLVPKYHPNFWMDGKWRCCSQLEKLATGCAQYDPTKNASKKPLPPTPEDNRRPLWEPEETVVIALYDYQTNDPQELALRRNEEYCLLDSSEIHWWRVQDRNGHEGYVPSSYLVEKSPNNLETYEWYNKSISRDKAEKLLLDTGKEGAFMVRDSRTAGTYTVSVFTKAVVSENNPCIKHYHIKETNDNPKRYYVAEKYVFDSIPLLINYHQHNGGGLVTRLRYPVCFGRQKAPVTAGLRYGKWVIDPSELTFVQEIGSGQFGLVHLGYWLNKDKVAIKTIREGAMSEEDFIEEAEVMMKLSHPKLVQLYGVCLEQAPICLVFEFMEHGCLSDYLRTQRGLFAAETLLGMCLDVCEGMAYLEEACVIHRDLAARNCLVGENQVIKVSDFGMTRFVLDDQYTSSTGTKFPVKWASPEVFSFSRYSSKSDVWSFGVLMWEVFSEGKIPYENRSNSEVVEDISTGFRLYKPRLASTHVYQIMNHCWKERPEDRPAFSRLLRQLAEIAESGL
Description: Kinase inhibition assay (33P transfer), Itk. To be noted: Table 3; read-out: Itk-1. The method in brief: (§2)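 Kinase domains or full-length enzymes, GST- or polyHis-tagged, were expressed in E. coli or baculovirus High Five cells and affinity-purified. Transfer of 33PO4 from ATP onto plate-bound poly(Glu,Tyr) 4:1 or poly(Arg,Ser) 3:1 was counted by liquid scintillation after a 0.5% phosphoric acid wash. IC50 = concentration halving incorporation.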

Assay [4] concerns the target T4, EGFR (Homo sapiens, UniProt P00533).
T4 construct: Kinases are expressed as either kinase domains or full length constructs; made in house
Description: Kinase inhibition assay (33P transfer), EGFR. To be noted: Table 2, kinase inhibition class; read-out: EGFR-1. Put shortly: as §2

For assay [5], the target named is T5, Kdr (Homo sapiens, UniProt P35968).
T5 construct: Kinases are expressed as either kinase domains or full length constructs; made in house
Put plainly: Kinase inhibition assay (33P transfer), Kdr. To be noted: Table 3; read-out: KDR-1. The method in brief: as §1

Assay [6] has as its target T6, Tek (Homo sapiens, UniProt Q02763).
T6 construct: Kinases are expressed as either kinase domains or full length constructs; made in house
Put plainly: Kinase inhibition assay (33P transfer), Tek. The settings on record: read-out: Tek-1. Put shortly:
as §2

The target in assay [7] is T7, c-Met (Homo sapiens, UniProt P08581).
T7 construct: Kinases are expressed as either kinase domains or full length constructs; made in house
Description: Kinase inhibition assay (33P transfer), c-Met. The settings on record: Table 2, kinase inhibition class; read-out: Met-1. Put shortly:
as §2

The target in assay [8] is T8, AKT (Homo sapiens, UniProt Q9Y243).
T8 construct: Kinases are expressed as either kinase domains or full length constructs; made in house
Put plainly: Kinase inhibition assay (33P transfer), AKT. To be noted: Table 2, kinase inhibition class; read-out: AKT3-1. Put shortly:
as §1

The target in assay [9] is T9, IGFR-1 (Homo sapiens, UniProt P08069).
T9 construct: Kinases are expressed as either kinase domains or full length constructs; made in house
Description: Kinase inhibition assay (33P transfer), IGFR-1. To be noted: Table 2, kinase inhibition class.

The target in assay [10] is T10, EPHB4 (Homo sapiens, UniProt P54760).
T10 construct: Kinases are expressed as either kinase domains or full length constructs; made in house
T10 sequence (P54760 16-987): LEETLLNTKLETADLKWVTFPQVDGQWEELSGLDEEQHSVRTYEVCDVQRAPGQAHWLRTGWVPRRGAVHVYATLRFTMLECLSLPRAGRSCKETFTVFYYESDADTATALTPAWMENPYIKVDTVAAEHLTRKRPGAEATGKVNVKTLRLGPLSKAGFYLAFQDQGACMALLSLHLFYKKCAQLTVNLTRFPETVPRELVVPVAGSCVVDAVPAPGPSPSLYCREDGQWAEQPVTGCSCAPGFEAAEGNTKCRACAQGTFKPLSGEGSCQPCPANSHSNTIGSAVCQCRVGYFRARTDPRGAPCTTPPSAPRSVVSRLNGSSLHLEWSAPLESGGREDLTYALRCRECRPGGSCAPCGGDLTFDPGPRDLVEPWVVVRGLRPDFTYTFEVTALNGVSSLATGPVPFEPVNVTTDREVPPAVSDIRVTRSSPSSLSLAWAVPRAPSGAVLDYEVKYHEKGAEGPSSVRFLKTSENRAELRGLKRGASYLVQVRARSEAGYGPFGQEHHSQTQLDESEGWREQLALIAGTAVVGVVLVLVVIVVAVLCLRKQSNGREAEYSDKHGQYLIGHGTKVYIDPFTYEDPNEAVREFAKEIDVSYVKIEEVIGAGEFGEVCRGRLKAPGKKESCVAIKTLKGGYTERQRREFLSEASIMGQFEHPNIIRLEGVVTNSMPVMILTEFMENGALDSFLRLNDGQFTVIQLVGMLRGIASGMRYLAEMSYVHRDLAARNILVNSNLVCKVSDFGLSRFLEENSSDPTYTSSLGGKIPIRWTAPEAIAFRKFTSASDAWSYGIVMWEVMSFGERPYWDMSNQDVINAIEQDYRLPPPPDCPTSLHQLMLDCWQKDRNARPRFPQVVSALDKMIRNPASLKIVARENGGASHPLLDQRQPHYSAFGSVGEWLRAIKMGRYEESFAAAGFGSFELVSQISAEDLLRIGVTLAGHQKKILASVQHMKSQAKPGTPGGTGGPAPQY
Put plainly: Kinase inhibition assay (33P transfer), EPHB4. The settings on record: read-out: EPHB4-1.

T9 sequence (P08069 31-1367): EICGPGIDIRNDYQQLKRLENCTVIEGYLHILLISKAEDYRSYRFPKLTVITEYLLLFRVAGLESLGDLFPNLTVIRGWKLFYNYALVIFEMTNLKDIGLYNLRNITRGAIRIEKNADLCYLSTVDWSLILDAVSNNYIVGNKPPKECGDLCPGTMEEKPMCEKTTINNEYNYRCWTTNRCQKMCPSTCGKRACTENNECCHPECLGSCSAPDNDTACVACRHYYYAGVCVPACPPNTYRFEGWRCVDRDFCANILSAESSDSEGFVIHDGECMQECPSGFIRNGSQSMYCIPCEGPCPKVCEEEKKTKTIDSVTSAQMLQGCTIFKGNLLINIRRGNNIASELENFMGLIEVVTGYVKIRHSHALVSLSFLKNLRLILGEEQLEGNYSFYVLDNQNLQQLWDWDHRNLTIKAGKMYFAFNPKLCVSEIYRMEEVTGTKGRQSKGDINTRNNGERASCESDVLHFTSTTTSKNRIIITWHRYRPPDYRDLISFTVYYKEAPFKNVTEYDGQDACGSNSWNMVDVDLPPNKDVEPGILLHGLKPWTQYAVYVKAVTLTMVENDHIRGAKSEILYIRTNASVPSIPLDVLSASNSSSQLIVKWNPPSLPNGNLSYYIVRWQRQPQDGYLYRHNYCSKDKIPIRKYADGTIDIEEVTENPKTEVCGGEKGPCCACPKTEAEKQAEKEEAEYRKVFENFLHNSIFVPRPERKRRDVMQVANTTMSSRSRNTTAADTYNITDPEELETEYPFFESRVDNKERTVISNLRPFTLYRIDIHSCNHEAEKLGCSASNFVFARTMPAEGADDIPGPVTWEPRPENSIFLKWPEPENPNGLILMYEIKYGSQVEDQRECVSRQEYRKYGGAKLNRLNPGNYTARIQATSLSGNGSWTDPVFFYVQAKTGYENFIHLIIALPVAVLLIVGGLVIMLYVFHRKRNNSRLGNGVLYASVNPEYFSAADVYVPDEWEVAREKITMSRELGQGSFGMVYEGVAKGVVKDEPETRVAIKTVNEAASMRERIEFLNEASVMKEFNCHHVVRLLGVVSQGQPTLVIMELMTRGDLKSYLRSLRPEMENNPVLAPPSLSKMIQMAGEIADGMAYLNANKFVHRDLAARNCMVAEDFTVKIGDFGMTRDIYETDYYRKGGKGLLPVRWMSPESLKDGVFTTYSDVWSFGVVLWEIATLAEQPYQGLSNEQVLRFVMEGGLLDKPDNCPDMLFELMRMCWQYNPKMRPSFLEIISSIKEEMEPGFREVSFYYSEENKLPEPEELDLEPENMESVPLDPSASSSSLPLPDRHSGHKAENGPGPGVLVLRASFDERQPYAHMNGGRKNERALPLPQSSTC
T8 sequence (Q9Y243 whole entry, the tested form may be a part): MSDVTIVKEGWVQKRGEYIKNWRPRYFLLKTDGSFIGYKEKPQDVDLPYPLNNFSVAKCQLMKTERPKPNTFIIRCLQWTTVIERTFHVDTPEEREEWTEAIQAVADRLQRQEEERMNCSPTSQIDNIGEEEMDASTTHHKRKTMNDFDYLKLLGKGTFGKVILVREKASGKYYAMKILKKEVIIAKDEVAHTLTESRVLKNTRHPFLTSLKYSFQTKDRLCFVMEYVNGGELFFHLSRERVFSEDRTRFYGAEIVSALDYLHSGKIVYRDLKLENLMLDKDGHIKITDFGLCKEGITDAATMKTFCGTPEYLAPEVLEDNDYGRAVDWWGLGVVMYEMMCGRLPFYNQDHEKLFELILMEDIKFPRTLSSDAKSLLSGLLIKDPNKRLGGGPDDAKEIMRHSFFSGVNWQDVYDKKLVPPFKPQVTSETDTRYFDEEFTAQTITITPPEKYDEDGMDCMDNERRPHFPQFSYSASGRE
T7 sequence (P08581 25-1390): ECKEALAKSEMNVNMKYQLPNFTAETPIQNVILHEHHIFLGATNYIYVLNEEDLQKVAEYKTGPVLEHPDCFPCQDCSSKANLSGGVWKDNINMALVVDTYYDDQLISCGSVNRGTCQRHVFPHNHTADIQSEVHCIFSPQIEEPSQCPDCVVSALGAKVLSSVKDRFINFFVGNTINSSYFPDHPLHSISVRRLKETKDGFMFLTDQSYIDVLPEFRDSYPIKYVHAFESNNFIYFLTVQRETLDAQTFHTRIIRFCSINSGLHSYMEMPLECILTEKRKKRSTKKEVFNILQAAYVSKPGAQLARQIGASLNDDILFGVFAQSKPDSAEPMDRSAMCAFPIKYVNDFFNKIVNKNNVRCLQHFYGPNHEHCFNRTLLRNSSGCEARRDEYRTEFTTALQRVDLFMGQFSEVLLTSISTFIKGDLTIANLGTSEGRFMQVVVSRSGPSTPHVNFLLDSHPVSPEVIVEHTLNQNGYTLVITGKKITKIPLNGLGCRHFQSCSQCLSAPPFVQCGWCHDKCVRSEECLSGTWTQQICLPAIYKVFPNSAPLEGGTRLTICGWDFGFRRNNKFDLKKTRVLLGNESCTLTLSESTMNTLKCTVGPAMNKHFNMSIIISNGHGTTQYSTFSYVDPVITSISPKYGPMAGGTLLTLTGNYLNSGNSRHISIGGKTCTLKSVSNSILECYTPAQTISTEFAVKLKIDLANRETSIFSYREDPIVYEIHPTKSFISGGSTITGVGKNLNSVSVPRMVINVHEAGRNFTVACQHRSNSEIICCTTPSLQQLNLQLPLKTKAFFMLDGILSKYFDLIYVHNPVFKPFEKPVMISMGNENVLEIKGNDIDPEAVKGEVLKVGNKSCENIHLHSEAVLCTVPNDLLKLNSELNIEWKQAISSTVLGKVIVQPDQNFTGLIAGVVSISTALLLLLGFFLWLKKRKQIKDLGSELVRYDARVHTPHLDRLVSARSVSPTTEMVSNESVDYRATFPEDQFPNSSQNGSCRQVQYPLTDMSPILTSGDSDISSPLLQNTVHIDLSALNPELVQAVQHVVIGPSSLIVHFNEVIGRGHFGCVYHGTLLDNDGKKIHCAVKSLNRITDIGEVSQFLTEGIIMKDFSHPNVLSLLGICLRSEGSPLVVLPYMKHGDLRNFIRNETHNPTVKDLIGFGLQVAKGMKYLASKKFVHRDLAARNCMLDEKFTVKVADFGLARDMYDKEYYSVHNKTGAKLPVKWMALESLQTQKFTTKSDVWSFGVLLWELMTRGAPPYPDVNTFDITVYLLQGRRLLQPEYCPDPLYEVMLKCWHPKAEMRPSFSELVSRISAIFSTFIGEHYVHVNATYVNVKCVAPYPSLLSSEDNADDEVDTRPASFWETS
T5 sequence (P35968 20-1356, species assumed): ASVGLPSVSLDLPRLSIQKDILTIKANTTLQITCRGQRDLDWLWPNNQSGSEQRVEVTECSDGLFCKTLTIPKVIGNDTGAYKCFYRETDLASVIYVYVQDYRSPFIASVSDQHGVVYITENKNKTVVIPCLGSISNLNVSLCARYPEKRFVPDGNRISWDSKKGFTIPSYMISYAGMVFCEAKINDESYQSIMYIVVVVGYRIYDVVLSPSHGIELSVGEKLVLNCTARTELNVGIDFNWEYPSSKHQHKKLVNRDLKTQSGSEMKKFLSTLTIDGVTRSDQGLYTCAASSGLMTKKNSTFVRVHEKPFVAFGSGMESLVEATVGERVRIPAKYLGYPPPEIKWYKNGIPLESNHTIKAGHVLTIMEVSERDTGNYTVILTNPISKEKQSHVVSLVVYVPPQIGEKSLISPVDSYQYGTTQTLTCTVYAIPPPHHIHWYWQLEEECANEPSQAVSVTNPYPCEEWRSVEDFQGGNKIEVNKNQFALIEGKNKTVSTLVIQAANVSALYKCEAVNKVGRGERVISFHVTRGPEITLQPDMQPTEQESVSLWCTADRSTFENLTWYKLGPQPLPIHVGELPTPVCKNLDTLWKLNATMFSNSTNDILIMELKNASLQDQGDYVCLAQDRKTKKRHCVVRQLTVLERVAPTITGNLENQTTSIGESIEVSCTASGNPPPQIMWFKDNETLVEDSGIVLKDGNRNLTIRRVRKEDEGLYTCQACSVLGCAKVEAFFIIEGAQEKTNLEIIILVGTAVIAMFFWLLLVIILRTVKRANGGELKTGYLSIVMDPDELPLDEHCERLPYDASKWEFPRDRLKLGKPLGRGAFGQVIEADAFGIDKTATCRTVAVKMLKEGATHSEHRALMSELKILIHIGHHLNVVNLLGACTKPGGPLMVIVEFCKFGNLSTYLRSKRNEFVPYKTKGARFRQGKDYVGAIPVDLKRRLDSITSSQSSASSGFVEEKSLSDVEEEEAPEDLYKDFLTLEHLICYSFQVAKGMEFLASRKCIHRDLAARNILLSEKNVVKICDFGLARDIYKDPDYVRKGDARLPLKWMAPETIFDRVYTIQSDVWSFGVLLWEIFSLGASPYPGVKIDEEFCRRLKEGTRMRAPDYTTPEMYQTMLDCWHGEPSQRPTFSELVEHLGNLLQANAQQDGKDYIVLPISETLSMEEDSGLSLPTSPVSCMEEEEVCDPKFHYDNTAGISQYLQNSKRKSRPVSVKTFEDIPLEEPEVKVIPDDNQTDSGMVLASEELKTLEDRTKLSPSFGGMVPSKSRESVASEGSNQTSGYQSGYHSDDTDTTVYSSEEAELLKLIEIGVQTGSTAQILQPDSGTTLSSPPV
T1 sequence (P06239 whole entry, species assumed, the tested form may be a part): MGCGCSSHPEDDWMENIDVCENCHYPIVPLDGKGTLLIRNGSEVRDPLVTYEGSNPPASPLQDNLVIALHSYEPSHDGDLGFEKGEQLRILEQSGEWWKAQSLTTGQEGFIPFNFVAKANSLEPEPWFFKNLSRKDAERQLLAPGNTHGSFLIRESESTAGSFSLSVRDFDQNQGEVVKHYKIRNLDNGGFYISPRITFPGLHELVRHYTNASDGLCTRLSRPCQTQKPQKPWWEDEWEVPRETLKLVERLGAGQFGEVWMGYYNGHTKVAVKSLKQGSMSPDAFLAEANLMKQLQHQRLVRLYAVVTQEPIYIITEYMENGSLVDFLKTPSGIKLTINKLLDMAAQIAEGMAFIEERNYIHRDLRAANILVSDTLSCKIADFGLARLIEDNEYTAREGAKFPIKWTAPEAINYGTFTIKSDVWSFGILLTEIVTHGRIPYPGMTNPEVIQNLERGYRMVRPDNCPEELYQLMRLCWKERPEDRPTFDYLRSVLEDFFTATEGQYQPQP

In the case of `COc1ccc(Nc2ncnc(N(CC(=O)OC(C)(C)C)c3ccc4c(c3)OCO4)n2)cc1OC` [Compound 310], the IC50 is 0.831 to 4.98 µM in assay [1]; greater than 9.35 µM in assay [2]; greater than 9.35 µM in [3]; 0.831 to 4.98 µM in assay [4]; 7.27 to 9.35 µM in [5]; greater than 9.35 µM in [6]. Also, the IC50 in [7] is greater than 9.35 µM; in [8], greater than 9.35 µM; in [9] it was 0.831 to 4.98 µM; in assay [10] it was greater than 9.35 µM.
On to `COc1cc(Nc2ncnc(Nc3[nH]ncc3-c3cccs3)n2)cc(OC)c1OC` [Compound 368], for which the IC50 in assay [1] is 8.23 to 10.6 µM; in [2] it was greater than 10.6 µM; in [3], greater than 10.6 µM; in assay [4], greater than 10.6 µM; in [5], greater than 10.6 µM; in assay [6], greater than 10.6 µM. Also, the IC50 in [7], in assay [8], in assay [9] and in assay [10] was greater than 10.6 µM each time.
On to `COc1ccc(Nc2ncnc(Nc3ccc(Br)cc3F)n2)cc1OC` [Compound 117], for which the IC50 was 5.71 to 8.33 µM in [1]; 8.33 to 10.7 µM in assay [2]; greater than 10.7 µM in assay [3]; 5.71 to 8.33 µM in assay [4]; 0.952 to 5.71 µM in assay [5]; greater than 10.7 µM in [6]. The IC50 was 8.33 to 10.7 µM in assay [7], 5.71 to 8.33 µM in assay [8], greater than 10.7 µM in assay [9] and 8.33 to 10.7 µM in assay [10].
As for `COc1cc(Nc2ncnc(Nc3ccc(NCc4ccccc4)cc3)n2)cc(OC)c1OC` [Compound 93], the IC50 in assay [1], in assay [2], in [3], in [4], in assay [5] and in assay [6] was greater than 9.81 µM throughout. Further, the IC50 in [7], in assay [8], in assay [9] and in assay [10] was greater than 9.81 µM in each case.
With `COC(=O)c1ccc(Nc2ncnc(Nc3cc(-c4ccco4)n[nH]3)n2)cc1` [Compound 366], the IC50 in assay [1] is 6.36 to 9.27 µM; in [2], 6.36 to 9.27 µM; in assay [3] it was greater than 11.9 µM; in assay [4], greater than 11.9 µM; in assay [5] it was greater than 11.9 µM; in [6] it was greater than 11.9 µM. Also, the IC50 in assay [7] was greater than 11.9 µM; in assay [8], greater than 11.9 µM; in assay [9], 1.06 to 6.36 µM; in [10], 1.06 to 6.36 µM.
Regarding `OCCCNc1cc(-c2ncnc(Nc3cccc(OC(F)(F)C(F)F)c3)n2)ccn1` [Compound 372], the IC50 in [1], in assay [2], in [3], in [4], in assay [5] and in assay [6] was greater than 10.3 µM throughout. In addition, the IC50 in [7], in [8], in [9] and in assay [10] was greater than 10.3 µM in each case.
In the case of `COCCOc1ccc(Nc2ncnc(-c3ccccc3)n2)cc1` [Compound 155], the IC50 in [1], in assay [2], in assay [3], in [4], in assay [5] and in assay [6] was greater than 14 µM each time. Further, the IC50 in assay [7], in assay [8], in assay [9] and in assay [10] was greater than 14 µM throughout.
As to `COc1cc(Nc2ncnc(-c3ccsc3)n2)cc(OC)c1OC` [Compound 226], the IC50 in assay [1] was 10.2 to 13.1 µM; in assay [2], 10.2 to 13.1 µM; in [3] it was greater than 13.1 µM; in assay [4], greater than 13.1 µM; in assay [5], 6.97 to 10.2 µM; in [6], 10.2 to 13.1 µM. Besides, the IC50 in [7], in assay [8], in assay [9] and in assay [10] was greater than 13.1 µM in each case.
As to `c1ccc(-c2ncnc(Nc3ccc(OCCCN4CCOCC4)cc3)n2)cc1` [Compound 154], the IC50 in [1] is greater than 11.5 µM; in [2], greater than 11.5 µM; in assay [3] it was greater than 11.5 µM; in assay [4], greater than 11.5 µM; in [5] it was 1.02 to 6.13 µM; in [6], greater than 11.5 µM. The IC50 in assay [7] is greater than 11.5 µM; in [8], greater than 11.5 µM; in assay [9], 1.02 to 6.13 µM; in assay [10], 8.94 to 11.5 µM.
With `O=c1[nH]c2ccccc2n1-c1ncnc(Nc2ccc(-c3cnco3)cc2)n1` [Compound 379], the IC50 in [1] is greater than 12.1 µM; in [2], greater than 12.1 µM; in [3], greater than 12.1 µM; in assay [4] it was greater than 12.1 µM; in [5], 9.42 to 12.1 µM; in [6], greater than 12.1 µM. Further, the IC50 in [7], in [8], in [9] and in [10] was greater than 12.1 µM each time.
Regarding `COc1cc(Nc2ncnc(Nc3ccc(O)cc3C)n2)cc(OC)c1OC` [Compound 927], the IC50 is 6.26 to 9.13 µM in assay [1]; greater than 11.7 µM in assay [2]; greater than 11.7 µM in assay [3]; 6.26 to 9.13 µM in assay [4]; 1.04 to 6.26 µM in assay [5]; greater than 11.7 µM in [6]. For the same compound, the IC50 in assay [7], in [8], in [9] and in assay [10] was greater than 11.7 µM throughout.

Values taken from patent publication US7074789B2, “Kinase inhibitors” (Amgen Inc., priority 1999, dated 2006).
